Counter-ions that a name gives are not always drawn.

As a reminder, the IC50 is the concentration needed to halve the response being measured.

The target in experiment [1] is T1, G1 APOL1 (Homo sapiens, UniProt O14791, I384M/S342G).
T1 construct: expressed in transfected cells
T1 sequence (O14791 28-398 S342G/I384M): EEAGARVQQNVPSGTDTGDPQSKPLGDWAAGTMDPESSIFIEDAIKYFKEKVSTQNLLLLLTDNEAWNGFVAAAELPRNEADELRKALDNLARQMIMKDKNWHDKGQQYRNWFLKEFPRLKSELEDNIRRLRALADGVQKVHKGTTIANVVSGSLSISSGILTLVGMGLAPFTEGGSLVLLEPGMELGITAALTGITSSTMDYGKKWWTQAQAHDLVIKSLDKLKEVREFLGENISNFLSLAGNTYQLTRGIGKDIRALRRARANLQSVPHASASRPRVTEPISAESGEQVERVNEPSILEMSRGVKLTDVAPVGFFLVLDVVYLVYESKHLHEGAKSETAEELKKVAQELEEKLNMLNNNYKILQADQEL
The experiment can be described thus: Acute APOL1 Thallium Assay with inducible stable clones of HEK 293 cells. The format is cell-based. The settings on record: HEK 293 T-Rex inducible stable clone expressing G1 APOL1; read-out: Thallium Assay (IC50). The method, boiled down: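 APOL1 pore function was measured as thallium influx, detected by a Tl+-sensitive fluorescent dye loaded as AM ester, on a FLIPR Tetra after Tl+ addition. Cells were HEK T-Rex G1 APOL1 clone DC3.25, 26,000 per well, induced with tetracycline at plating in Opti-MEM assay medium.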

Experiment [2] has as its target T2, APOL1 G1 Protein (Homo sapiens, UniProt O14791, I384M/S342G).
T2 sequence (O14791 28-398 S342G/I384M): T1 sequence (O14791 28-398 S342G/I384M)
As to the kind of experiment: Trypanosoma brucei brucei lysis assay using APOL1 recombinant protein (AlamarBlue viability). The format is cell-based. To be noted: Trypanosoma brucei brucei lysis with recombinant APOL1 protein. (In general: Resazurin is reduced to fluorescent resorufin, in cell work by metabolically active cells.)

Turning to `Cc1ccc(-c2[nH]c3c(F)cc(F)cc3c2C2CC(N)C2)cc1` (mixture of isomers) [Compound 4, 3-[5,7-difluoro-2-(p-tolyl)-1H-indol-3-yl]cyclobutanamine], the IC50 in experiment [1] and in experiment [2] was less than 250 nM in each case.
For the compound `NC1CC(c2c(-c3ccc(Cl)cc3)[nH]c3c(F)cc(F)cc23)C1` (mixture of isomers) [Compound 10, 3-[2-(4-chlorophenyl)-5,7-difluoro-1H-indol-3-yl]cyclobutanamine], the IC50 in experiment [1] and in experiment [2] was less than 250 nM in each case.
On to `COc1ccc(-c2[nH]c3c(F)cc(F)cc3c2C2CC(N)C2)cc1` (mixture of isomers) [Compound 12, 3-[5,7-difluoro-2-(4-methoxyphenyl)-1H-indol-3-yl]cyclobutanamine], for which the IC50 in experiment [1] was 250 to 1000 nM; in experiment [2], less than 250 nM.
Regarding `CC(=O)OC1CC(c2c(-c3ccc(F)cc3)[nH]c3c(F)cc(F)cc23)C1` (mixture of isomers) [Compound 173, [3-[5,7-difluoro-2-(4-fluorophenyl)-1H-indol-3-yl]cyclobutyl]acetate], the IC50 is 250 to 1000 nM in experiment [1] and less than 250 nM in experiment [2].
In the same order, the values of `NCC1CC(c2c(-c3ccc(Cl)cc3)[nH]c3c(F)cc(F)cc23)C1` (mixture of isomers) [Compound 176, (3-(2-(4-chlorophenyl)-5,7-difluoro-1H-indol-3-yl)cyclobutyl)methanamine] are less than 250 nM and less than 250 nM.
As to `NCC1CC(c2c(-c3ccc(F)cc3)[nH]c3c(F)cc(F)cc23)C1` (mixture of isomers) [Compound 186, (3-(5,7-difluoro-2-(4-fluorophenyl)-1H-indol-3-yl)cyclobutyl)methanamine], the IC50 in experiment [1] and in experiment [2] was less than 250 nM each time.
As to `N[C@H]1CC[C@H](c2c(-c3ccc(F)cc3)[nH]c3c(F)cc(F)cc32)CC1` (single isomer, unassigned) [Compound 434, Trans-4-[5,7-difluoro-2-(4-fluorophenyl)-1H-indol-3-yl]cyclohexanamine], the IC50 in experiment [1] is 250 to 1000 nM; in experiment [2], less than 250 nM.
Consider `NC1CC(c2c(-c3ccc(F)cc3)[nH]c3c(F)cccc23)C1` (stereo not shown) [Compound 6, 3-[7-fluoro-2-(4-fluorophenyl)-1H-indol-3-yl]cyclobutanamine], for which the IC50 in experiment [1] was 250 to 1000 nM; in experiment [2], less than 250 nM.
On to `O=C(CO)NC1CC(c2c(-c3ccc(F)cc3)[nH]c3c(F)cc(F)cc23)C1` (stereo not shown) [Compound 15, N-[3-[5,7-difluoro-2-(4-fluorophenyl)-1H-indol-3-yl]cyclobutyl]-2-hydroxy-acetamide], for which the IC50 in experiment [1] was less than 250 nM; in experiment [2], 250 to 1000 nM.
In the case of `CC(C)(O)CC(=O)NC1CC(c2c(-c3ccc(F)cc3)[nH]c3c(F)cc(F)cc23)C1` (stereo not shown) [Compound 16, N-[3-[5,7-difluoro-2-(4-fluorophenyl)-1H-indol-3-yl]cyclobutyl]-3-hydroxy-3-methyl-butanamide], the IC50 in experiment [1] and in experiment [2] was 250 to 1000 nM throughout.
Regarding `CC(=O)NC1CC(c2c(-c3ccc(F)cc3)[nH]c3c(F)cc(F)cc23)C1` (stereo not shown) [Compound 17, N-[3-[5,7-difluoro-2-(4-fluorophenyl)-1H-indol-3-yl]cyclobutyl]acetamide], the IC50 in experiment [1] and in experiment [2] was 250 to 1000 nM in each case.
As to `COCC(=O)NC1CC(c2c(-c3ccc(F)cc3)[nH]c3c(F)cc(F)cc23)C1` (stereo not shown) [Compound 18, N-[3-[5,7-difluoro-2-(4-fluorophenyl)-1H-indol-3-yl]cyclobutyl]-2-methoxy-acetamide], the IC50 in experiment [1] and in experiment [2] was 250 to 1000 nM each time.
Regarding `O[C@H]1C[C@H](c2c(-c3ccc(F)cc3)[nH]c3c(F)cc(F)cc32)C1` [Compound 174, (1r,3r)-3-(5,7-difluoro-2-(4-fluorophenyl)-1H-indol-3-yl)cyclobutan-1-ol], the IC50 in experiment [1] and in experiment [2] was less than 250 nM each time.
With `NCC1CC(c2c(-c3ccc(OC(F)(F)F)cc3)[nH]c3c(F)cc(F)cc23)C1` (stereo not shown) [Compound 180], the IC50 in experiment [1] and in experiment [2] was less than 250 nM in each case.
Take `Cc1cccc(-c2[nH]c3c(F)cc(F)cc3c2C2CC(CN)C2)c1` (stereo not shown) [Compound 181]: the IC50 in experiment [1] and in experiment [2] was less than 250 nM in each case.
On to `CC(=O)NC1CCC(c2c(-c3ccc(F)cc3)[nH]c3c(F)cc(F)cc23)CC1` (stereo not shown) [Compound 435, N-(4-(5,7-difluoro-2-(4-fluorophenyl)-1H-indol-3-yl)cyclohexyl)acetamide], for which the IC50 in experiment [1] was more than 1000 nM.
Same read-out and setting: under `Fc1ccc(-c2[nH]c3c(F)cc(F)cc3c2CC2CNC2)cc1` [Compound 436, 3-(azetidin-3-ylmethyl)-5,7-difluoro-2-(4-fluorophenyl)-1H-indole] stands less than 250 nM; under `O=C(N1CC(Cc2c(-c3ccc(F)cc3)[nH]c3c(F)cc(F)cc23)C1)C1(CO)CC1` [Compound 437, [3-[[5,7-difluoro-2-(4-fluorophenyl)-1H-indol-3-yl]methyl]azetidin-1-yl]-[1-(hydroxymethyl)cyclopropyl]methanone (Trifluoroacetate salt)], 250 to 1000 nM; under `C[C@H](O)C(=O)N1CC(Cc2c(-c3ccc(F)cc3)[nH]c3c(F)cc(F)cc23)C1` [Compound 438], less than 250 nM.
`O=C(CCO)N1CC(Cc2c(-c3ccc(F)cc3)[nH]c3c(F)cc(F)cc23)C1` [Compound 439]: the IC50 in experiment [1] is less than 250 nM.
On the same count and under the same terms, as for `CNCC(=O)N1CC(Cc2c(-c3ccc(F)cc3)[nH]c3c(F)cc(F)cc23)C1` [Compound 440], the figure is 250 to 1000 nM; as for `O=C(c1c[nH]cn1)N1CC(c2c(-c3ccc(F)cc3)[nH]c3c(F)cc(F)cc23)C1` [Compound 441, (3-(5,7-difluoro-2-(4-fluorophenyl)-1H-indol-3-yl)azetidin-1-yl)(1H-imidazol-4-yl)methanone], 250 to 1000 nM.
Regarding `O=C(N1CC(c2c(-c3ccc(F)cc3)[nH]c3c(F)cc(F)cc23)C1)C1(O)CC1` [Compound 442, (3-(5,7-difluoro-2-(4-fluorophenyl)-1H-indol-3-yl)azetidin-1-yl)(1-hydroxycyclopropyl)methanone], the IC50 in experiment [1] was in the range of 250 to 1000 nM.
`O=C(C1CC1)N1CCC(Cc2c(-c3ccc(F)cc3)[nH]c3c(F)cc(F)cc23)C1` (stereo not shown) [Compound 445, Cyclopropyl-[3-[[5,7-difluoro-2-(4-fluorophenyl)-1H-indol-3-yl]methyl]pyrrolidin-1-yl]methanone]: the IC50 in experiment [1] was more than 1000 nM.
In the case of `NC(=O)C1(C(=O)N[C@H]2C[C@H](c3c(-c4ccc(F)cc4)[nH]c4c(F)cc(F)cc43)C2)CC1` [Compound 446, N^1′-[3-[5,7-difluoro-2-(4-fluorophenyl)-1H-indol-3-yl]cyclobutyl]cyclopropane-1,1-dicarboxamide], the IC50 in experiment [1] fell in the range of 250 to 1000 nM.
On the same count and under the same terms, under `NC(=O)CC(=O)N[C@H]1C[C@H](c2c(-c3ccc(F)cc3)[nH]c3c(F)cc(F)cc32)C1` [Compound 447, N′-[3-[5,7-difluoro-2-(4-fluorophenyl)-1H-indol-3-yl]cyclobutyl]propanediamide] stands 250 to 1000 nM.
As to `NC(=O)CNC(=O)N[C@H]1C[C@H](c2c(-c3ccc(F)cc3)[nH]c3c(F)cc(F)cc32)C1` [Compound 448, 2-(3-((1r,3r)-3-(5,7-difluoro-2-(4-fluorophenyl)-1H-indol-3-yl)cyclobutyl)ureido)acetamide], the IC50 in experiment [1] lay within 250 to 1000 nM.
Regarding `NC(=O)CNC(=O)C1CC(Cc2c(-c3ccc(F)cc3)[nH]c3c(F)cc(F)cc23)C1` (stereo not shown) [Compound 449, N-(2-amino-2-oxoethyl)-3-((5,7-difluoro-2-(4-fluorophenyl)-1H-indol-3-yl)methyl)cyclobutane-1-carboxamide], in experiment [1], the IC50 is more than 1000 nM.
Consider `NC(=O)CC(=O)NC[C@H]1C[C@H](c2c(-c3ccc(F)cc3)[nH]c3c(F)cc(F)cc32)C1` [Compound 450, N^1-(((1r,3r)-3-(5,7-difluoro-2-(4-fluorophenyl)-1H-indol-3-yl)cyclobutyl)methyl)malonamide], for which the IC50 in experiment [1] lay in the range of 250 to 1000 nM.
Still for that read-out and setting: as for `NC(=O)C(=O)NC[C@H]1C[C@H](c2c(-c3ccc(F)cc3)[nH]c3c(F)cc(F)cc32)C1` [Compound 451], the figure is 250 to 1000 nM.
Turning to `NC(=O)C1(C(=O)NC[C@H]2C[C@H](c3c(-c4ccc(F)cc4)[nH]c4c(F)cc(F)cc43)C2)CC1` [Compound 452], the IC50 in experiment [1] is more than 1000 nM.
Regarding `NC(=O)C(=O)NC[C@H]1C[C@@H](c2c(-c3ccc(F)cc3)[nH]c3c(F)cc(F)cc32)C1` [Compound 453, N^1-(((1s,3s)-3-(5,7-difluoro-2-(4-fluorophenyl)-1H-indol-3-yl)cyclobutyl)methyl)oxalamide], the IC50 in experiment [1] was more than 1000 nM.
The same measure, in the same setting: under `CN(C)C(=O)CCC(=O)NC[C@H]1C[C@@H](c2c(-c3ccc(F)cc3)[nH]c3c(F)cc(F)cc32)C1` [Compound 454, N^1-(((1s,3s)-3-(5,7-difluoro-2-(4-fluorophenyl)-1H-indol-3-yl)cyclobutyl)methyl)-N^4,N^4-dimethylsuccinamide] stands more than 1000 nM; under `NC(=O)C(=O)N1CC(Cc2c(-c3ccc(F)cc3)[nH]c3c(F)cc(F)cc23)C1` [Compound 455, 2-[3-[[5,7-difluoro-2-(4-fluorophenyl)-1H-indol-3-yl]methyl]azetidin-1-yl]-2-oxo-acetamide], 250 to 1000 nM.

For the origin of these results see patent US12281102B2, “Inhibitors of APOL1 and methods of using same” (Vertex Pharmaceuticals Incorporated, priority 2020, dated 2025).
